3 compounds from patent US10130095B2, “Fungicidal compositions of pyrazolecarboxylic acid alkoxyamides” (BASF AGRO B.V., priority 2014, dated 2018) can be followed below.

One assay has as its system Venturia inaequalis. Nature of the assay: in vivo preventive test on Venturia test (apples). The conditions noted are these: evaluated 10 days after inoculation. The procedure:
(§1) Solvent: 24.5 parts by weight of acetone • 24.5 parts by weight of dimethylacetamide Emulsifier: 1 part by weight of alkylaryl polyglycol ether To produce a suitable preparation of active compound, 1 part by weight of active compound is mixed with the stated amounts of solvent and emulsifier, and the concentrate is diluted with water to the desired concentration. To test for preventive activity, young plants are sprayed with the preparation of active compound at the stated rate of application. After the spray coating has dried on, the plants are inoculated with an aqueous conidia suspension of the causal agent of apple scab (Venturia inaequalis) and then remain for 1 day in an incubation cabinet at approximately 20° C. and a relative atmospheric humidity of 100%. The plants are then placed in a greenhouse at approximately 21° C. and a relative atmospheric humidity of approximately 90%. The test is evaluated 10 days after the inoculation. 0% means an efficacy which corresponds to that of the untreated control, while an efficacy of 100% means that no disease is observed.

The next assay has as its system Alternaria solani. Nature of the assay: in vivo preventive test on Alternaria test (tomatoes). The conditions noted are these: evaluated 3 days after inoculation. Here is the method: as §1, with “aqueous spore” for “aqueous conidia”, “of Alternaria solani. The plants are” for “of the causal agent of apple scab (Venturia inaequalis) and”, “then placed” for “then remain for 1 day”, “The” for “The plants are then placed in a greenhouse at approximately 21° C. and a relative atmospheric humidity of approximately 90%. The”, “evaluated 3” for “evaluated 10”, “untreated control” for “untreated control,”

The subject of another assay is Septoria tritici. Nature of the assay: in vivo preventive Septoria tritici test (wheat). To be noted: 15 ppm a.i., evaluated 21 days after inoculation. The procedure:
Solvent: 49 parts by weight of N,N-dimethylacetamide Emulsifier: 1 part by weight of alkylaryl polyglycol ether To produce a suitable preparation of active compound, 1 part by weight of active compound or active compound combination is mixed with the stated amounts of solvent and emulsifier, and the concentrate is diluted with water to the desired concentration. To test for preventive activity, young plants are sprayed with the preparation of active compound or active compound combination at the stated rate of application. After the spray coating has been dried, the plants are sprayed with a spore suspension of Septoria tritici. The plants remain for 48 hours in an incubation cabinet at approximately 20° C. and a relative atmospheric humidity of approximately 100% and afterwards for 60 hours at approximately 15° C. in a translucent incubation cabinet at a relative atmospheric humidity of approximately 100%. The plants are placed in the greenhouse at a temperature of approximately 15° C. and a relative atmospheric humidity of approximately 80%. The test is evaluated 21 days after the inoculation. 0% means an efficacy which corresponds to that of the untreated control, while an efficacy of 100% means that no disease is observed.

In another assay the test system is Botrytis cinerea. Nature of the assay: in vivo preventive test on Botrytis test (beans). To be noted: evaluated 2 days after inoculation. Here is the method: Solvent: 24.5 parts by weight of acetone • 24.5 parts by weight of dimethylacetamide Emulsifier: 1 part by weight of alkylaryl polyglycol ether To produce a suitable preparation of active compound, 1 part by weight of active compound is mixed with the stated amounts of solvent and emulsifier, and the concentrate is diluted with water to the desired concentration. To test for preventive activity, young plants are sprayed with the preparation of active compound. After the spray coating has dried on, 2 small pieces of agar covered with growth of Botrytis cinerea are placed on each leaf. The inoculated plants are placed in a darkened chamber at 20° C. and a relative at mospheric humidity of 100%. 2 days after the inoculation, the size of the lesions on the leaves is evaluated. 0% means an efficacy which corresponds to that of the untreated control, while an efficacy of 100% means that no disease is observed.

With `CCC(O)(Cn1cncn1)c1ccc(Oc2ccc(Cl)cc2)cc1C(F)(F)F` (centres unmarked) [(B1-2), 2-[4-(4-chlorophenoxy)-2-(trifluoromethyl)phenyl]-1-(1H-1,2,4-triazol-1-yl)butan-2-ol], the “Efficacy in % found” value turned out to be 30% in the assay with Venturia inaequalis (1.25 ppm a.i.), 8% in the assay on Alternaria solani (1.25 ppm a.i.), 30% with Alternaria solani (2.5 ppm a.i.) and 13% in the assay with Septoria tritici.

With `CON(C(=O)c1cn(C)nc1C(F)F)C(C)Cc1c(Cl)cc(Cl)cc1Cl` (centres unmarked) [(I-1), 3-(difluoromethyl)-N-methoxy-1-methyl-N-[1-(2,4,6-trichlorophenyl)propan-2-yl]-1H-pyrazole-4-carboxamide], the “Efficacy in % found” value is 8% with Botrytis cinerea (0.5 ppm a.i.) and 76% with Venturia inaequalis (0.125 ppm a.i.).

For the compound `CC(O)(Cn1cncn1)c1ccc(Oc2ccc(Cl)cc2)cc1C(F)(F)F` (centres unmarked) [(B1-1), 2-[4-(4-Chlorophenoxy)-2-(trifluoromethyl)phenyl]-1-(1H-1,2,4-triazol-1-yl)propan-2-ol], the “Efficacy in % found” value in the assay on Botrytis cinerea (5 ppm a.i.) stood at 20%; in the assay on Septoria tritici it was 0%.
